According to patent US20200315998A1, “COMPOSITION FOR IMPROVING INTESTINAL BARRIER FUNCTION” (SUNTORY HOLDINGS LIMITED, priority 2017, published 2020):

Tested on: Caco-2 cells
Test: Evaluation of intestinal barrier function improvement: TEER reduction suppression in Caco-2 monolayer with inflammatory cytokines (TNFα, IL-1β, IFNγ)
Type: cell-based, human
Details: for Synergistic effect (M.V./T/V/) / TEER reduction suppression ratio (%) +gallic acid (actual measurement value) (M.V.) / Synergistic effect (M.V./T.V.): combined use of phenolic compound and gallic acid; for TEER reduction suppression ratio (%) +gallic acid (theoretical value) (T.V.): sum of ratios of phenolic compound alone and gallic acid alone, 10 μM each; for Relative value of TEER reduction suppression ratio: sample alone 1 μM; for Synergistic effect (relative value of actual measurement value / relative value of theoretical value): combined use of the phenolic compound with gallic acid, 1 μM each (Table 1)
Description: The intestinal barrier function improvement effect is indicated by, for example, increase in the electrical resistance value (transepithelial electric resistance: TEER) of the intestinal epithelial cells or suppression of the decrease in the TEER. A substance increasing the TEER or suppressing the decrease thereof has the action of normalizing or strengthening the tight junction in the intestinal epithelial cells. The intestinal barrier function improvement effect is also indicated by decrease in the amount of a substance permeating from the intestinal side of the intestinal epithelial cells to the inside of the body. The person skilled in the art can select a specific method of evaluating the intestinal barrier function improvement effect depending on the purpose. For exarple, as shown in Examples to be described later, a method for measuring TEER using an intestinal permeation model using human intestinal epithelial cells (Caco-2 cells) can be used. Specifically, inflammatory cytokine (TNFα, IL-1β, IFNγ and the like) is added into Caco-2 monolayer cultured cells to produce a state where the intestinal barrier function can be collapsed in human. If the addition of a test substance suppresses the decrease in the TEER as compared with the case where the substance is not added, the test substance can be evaluated to have the intestinal barrier function improvement effect.
Caco-2 cells were cultured for three weeks at 37° C. in Transwell (manufactured by Millicell Corporation) using DMEM (Dulbecco's modified Eagle's medium). A medium was removed from a plate of cultured Caco-2 cells, and the well was washed 3 times with serum-free DMEM. The well was filled with the medium. Then, the transepithelial electrical resistance (TEER) of Caco-2 monolayer cells was measured by Millicell-ERS (manufactured by Millipore Corporation). Cells (TEER≥1000 Ω·cm^2) determined that a sufficient tight junction was formed were selected, and used for the next screening. Then, to test solutions (media) on both apical and basolateral membrane sides, a sample, TNFα (40 ng/mL), IL-1β (20 ng/mL), and IFNγ (10 ng/mL) were added, followed by cultivating for 48 hours. The sample was dissolved in dimethyl sulfoxide (DMSO), and the solution was then added to the test solutions. In this case, a well to which inflammatory cytokine (TNFα, IL-1β, and IFNγ) and the sample were not added was provided as normal. A well to which inflammatory cytokine was added and the sample was not added was provided as control. After the cultivation, TEER was measured again, to evaluate whether the sample suppressed the reduction (decrease) of TEER due to the inflammatory cytokine.
The TEER reduction suppression ratio (%) due to the sample was determined according to the following formula from the TEER values of the well to which the sample was added, normal, and control.
(Calculating formula of TEER reduction suppression ratio) TEER reduction suppression ratio (%)=100×((TEER of well to which sample is added)−(TEER of control))/((TEER of normal)−(TEER of control))
In this evaluation system, as the TEER reduction suppression ratio (%) is higher, an intestinal barrier function improvement effect is higher.

[1] = Evaluation 2, epicatechin (EC) set to 1.0
[2] = Evaluation 4, epigallocatechin (EGC) set to 1.0
[3] = Evaluation 3, gallocatechin (GC) set to 1.0

## OC[C@H]1O[C@@H](Oc2cc(O)cc(/C=C/c3ccc(O)cc3)c2)[C@H](O)[C@@H](O)[C@@H]1O (relative stereo) [trans-Piceid, trans-piceid]
Each 10 μM
  Synergistic effect (M.V./T/V/): 1.5
  TEER reduction suppression ratio (%) +gallic acid (actual measurement value) (M.V.): 65%
  TEER reduction suppression ratio (%) +gallic acid (theoretical value) (T.V.): 45%

## O=C(OC[C@H]1O[C@@H](OC(=O)c2cc(O)c(O)c(O)c2)[C@H](OC(=O)c2cc(O)c(O)c(O)c2)[C@@H](OC(=O)c2cc(O)c(O)c(O)c2)[C@@H]1OC(=O)c1cc(O)c(O)c(O)c1)c1cc(O)c(O)c(O)c1 [1,2,3,4,6-penta-O-galloyl-β-D-glucose]
Each 1 μM
  Synergistic effect (M.V./T.V.): 1.4
  TEER reduction suppression ratio (%) +gallic acid (actual measurement value) (M.V.): 91%

## O=C(OC[C@H]1O[C@@H](OC(=O)c2cc(O)c(O)c(O)c2)[C@H](OC(=O)c2cc(O)c(O)c(O)c2)[C@@H](OC(=O)c2cc(O)c(O)c(O)c2)[C@@H]1O)c1cc(O)c(O)c(O)c1 [1,2,3,6-tetra-O-galloyl-β-D-glucose]
Each 1 μM
  Synergistic effect (M.V./T.V.): 1.5
  TEER reduction suppression ratio (%) +gallic acid (actual measurement value) (M.V.): 81%

## O=C(OC[C@H]1O[C@@H](OC(=O)c2cc(O)c(O)c(O)c2)[C@H](OC(=O)c2cc(O)c(O)c(O)c2)[C@@H](O)[C@@H]1OC(=O)c1cc(O)c(O)c(O)c1)c1cc(O)c(O)c(O)c1 [1,2,4,6-tetra-O-galloyl-β-D-glucose]
Each 1 μM
  Synergistic effect (M.V./T.V.): 1.4
  TEER reduction suppression ratio (%) +gallic acid (actual measurement value) (M.V.): 56%

## O=C(OC[C@H]1O[C@@H](OC(=O)c2cc(O)c(O)c(O)c2)[C@H](O)[C@@H](O)[C@@H]1OC(=O)c1cc(O)c(O)c(O)c1)c1cc(O)c(O)c(O)c1 [1,4,6-tri-O-galloyl-β-D-glucose]
Each 1 μM
  Synergistic effect (M.V./T.V.): 1.7
  TEER reduction suppression ratio (%) +gallic acid (actual measurement value) (M.V.): 40%

## O=C(OC[C@H]1O[C@@H](O)[C@H](OC(=O)c2cc(O)c(O)c(O)c2)[C@@H](OC(=O)c2cc(O)c(O)c(O)c2)[C@@H]1OC(=O)c1cc(O)c(O)c(O)c1)c1cc(O)c(O)c(O)c1 [2,3,4,6-tetra-O-galloyl-β-D-glucose]
Each 1 μM
  Synergistic effect (M.V./T.V.): 2.0
  TEER reduction suppression ratio (%) +gallic acid (actual measurement value) (M.V.): 90%

## O=C(O)/C=C/c1ccccc1O [2-Coumaric acid, 2-coumaric acid]
Each 10 μM
  Synergistic effect (M.V./T/V/): 3.0
  TEER reduction suppression ratio (%) +gallic acid (actual measurement value) (M.V.): 46%

## O=C(O)/C=C/c1cccc(O)c1 [3-Coumaric acid, 3-coumaric acid]
Each 10 μM
  Synergistic effect (M.V./T/V/): 1.2
  TEER reduction suppression ratio (%) +gallic acid (actual measurement value) (M.V.): 48%

## O=c1cc(-c2ccc(O)cc2)oc2cc(O)cc(O)c12 [Apigenin, apigenin]
Each 10 μM
  Synergistic effect (M.V./T/V/): 4.1
  TEER reduction suppression ratio (%) +gallic acid (actual measurement value) (M.V.): 51%

## O=C(O[C@@H]1COC(=O)c2cc(O)c(O)c(O)c2-c2c(cc(O)c(O)c2O)C(=O)O[C@H]1[C@@H]1OC(=O)c2cc(O)c(O)c(O)c2-c2c(O)c(O)c(O)c3c2C(=O)O[C@H]1[C@@H]3O)c1cc(O)c(O)c(O)c1 [Casuarinin, casuarinin]
Each 1 μM
  Synergistic effect (M.V./T.V.): 1.4
  TEER reduction suppression ratio (%) +gallic acid (actual measurement value) (M.V.): 81%

## O=C(O[C@@H]1O[C@@H]2COC(=O)c3cc(O)c(O)c(O)c3-c3c(cc(O)c(O)c3O)C(=O)O[C@H]([C@H]1O)[C@@H]2O)c1cc(O)c(O)c(O)c1 [Corilagin, corilagin]
Each 1 μM
  Synergistic effect (M.V./T.V.): 3.4
  TEER reduction suppression ratio (%) +gallic acid (actual measurement value) (M.V.): 76%

## O=c1c(-c2ccc(O)cc2)coc2cc(O)ccc12 [Daidzein, daidzein]
Each 10 μM
  Synergistic effect (M.V./T/V/): 1.8
  TEER reduction suppression ratio (%) +gallic acid (actual measurement value) (M.V.): 50%

## Oc1cc(O)c2c(c1)O[C@H](c1ccc(O)c(O)c1)[C@H](O)C2 [Epicatechin (EC), epicatechin]
[1]
  Relative value of TEER reduction suppression ratio: 1.0
  Synergistic effect (relative value of actual measurement value / relative value of theoretical value): 1.7

## O=C(O[C@@H]1Cc2c(O)cc(O)cc2O[C@@H]1c1ccc(O)c(O)c1)c1cc(O)c(O)c(O)c1 [Epicatechin gallate, epicatechin gallate]
Each 10 μM
  Synergistic effect (M.V./T/V/): 2.3
  TEER reduction suppression ratio (%) +gallic acid (actual measurement value) (M.V.): 110%

## Oc1cc(O)c2c(c1)O[C@H](c1cc(O)c(O)c(O)c1)[C@H](O)C2 [Epigallocatechin (EGC), epigallocatechin]
[2]
  Relative value of TEER reduction suppression ratio: 1.0
  Synergistic effect (relative value of actual measurement value / relative value of theoretical value): 1.5

## O=C(O[C@@H]1Cc2c(O)cc(O)cc2O[C@@H]1c1cc(O)c(O)c(O)c1)c1cc(O)c(O)c(O)c1 [Epigallocatechin gallate, epigallocatechin gallate]
Each 10 μM
  Synergistic effect (M.V./T/V/): 1.5
  TEER reduction suppression ratio (%) +gallic acid (actual measurement value) (M.V.): 114%
  TEER reduction suppression ratio (%) +gallic acid (theoretical value) (T.V.): 76%

## O=C(O)c1cc(O)c(O)c(O)c1 [Gallic acid (GA), 3,4,5-trihydroxybenzoic acid]
100 μM each, gallic acid vs quercetin
  TEER reduction suppression ratio of gallic acid relative to quercetin at the same concentration: about 1.15 times
Evaluation 1, catechin (CA) set to 1.0
  Relative value of TEER reduction suppression ratio: 0.4
[1]
  Relative value of TEER reduction suppression ratio: 0.5
[3]
  Relative value of TEER reduction suppression ratio: 0.3
[2]
  Relative value of TEER reduction suppression ratio: 0.2
Gallic acid alone, 1 μM and 10 μM
  Suppression of the reduction of TEER due to inflammatory cytokine: suppressed the reduction of TEER
Sample alone 100 μM, TNFα 40 ng/mL, IL-1β 20 ng/mL, IFNγ 10 ng/mL, 48 hours
  TEER reduction suppression ratio: 86.5%

## Oc1cc(O)c2c(c1)O[C@H](c1cc(O)c(O)c(O)c1)[C@@H](O)C2 [Galloatechin (GC), gallocatechin]
[3]
  Relative value of TEER reduction suppression ratio: 1.0
  Synergistic effect (relative value of actual measurement value / relative value of theoretical value): 2.5

## O=c1c(-c2ccc(O)cc2)coc2cc(O)cc(O)c12 [Genistein, genistein]
Each 10 μM
  Synergistic effect (M.V./T/V/): 1.6
  TEER reduction suppression ratio (%) +gallic acid (actual measurement value) (M.V.): 58%

## O=C1O[C@@H]2C3COC(=O)c4cc(O)c(O)c(O)c4-c4c(cc(O)c(O)c4O)C(=O)O[C@H]2C(OC(=O)c2cc(O)c(O)c4c2C2C1=CC(=O)C(O)(O)[C@@]2(O)O4)[C@H](OC(=O)c1cc(O)c(O)c(O)c1)O3 (some centres unmarked) [Geraniin, geraniin]
Each 1 μM
  Synergistic effect (M.V./T.V.): 2.4
  TEER reduction suppression ratio (%) +gallic acid (actual measurement value) (M.V.): 119%

## O=c1c(O)c(-c2ccc(O)cc2)oc2cc(O)cc(O)c12 [Kaempferol, kaempferol]
Each 10 μM
  Synergistic effect (M.V./T/V/): 2.5
  TEER reduction suppression ratio (%) +gallic acid (actual measurement value) (M.V.): 43%

## O=c1cc(-c2ccc(O)c(O)c2)oc2cc(O)cc(O)c12 [Luteolin, luteolin]
Each 10 μM
  Synergistic effect (M.V./T/V/): 1.6
  TEER reduction suppression ratio (%) +gallic acid (actual measurement value) (M.V.): 58%

## O=c1c(O)c(-c2cc(O)c(O)c(O)c2)oc2cc(O)cc(O)c12 [Myricetin, myricetin]
Each 10 μM
  Synergistic effect (M.V./T/V/): 1.2
  TEER reduction suppression ratio (%) +gallic acid (actual measurement value) (M.V.): 75%

## O=C(/C=C/c1ccc(O)cc1)c1c(O)cc(O)cc1O [Naringenin chalcone, 4,2′,4′,6′-tetra-hydroxy chalcone]
Each 10 μM
  Synergistic effect (M.V./T/V/): 1.7
  TEER reduction suppression ratio (%) +gallic acid (actual measurement value) (M.V.): 51%

## O=C1C[C@@H](c2ccc(O)cc2)Oc2cc(O)cc(O)c21 [Naringenin, naringenin]
Each 10 μM
  Synergistic effect (M.V./T/V/): 2.0
  TEER reduction suppression ratio (%) +gallic acid (actual measurement value) (M.V.): 61%

## O=C1OCC2O[C@@H](O)C3OC(=O)c4cc(O)c(O)c(O)c4-c4c(cc(O)c(O)c4O)C(=O)OC3[C@@H]2OC(=O)c2cc(O)c(O)c(O)c2-c2c1cc(O)c(O)c2O (some centres unmarked) [Pedunculagin, pedunculagin]
Each 1 μM
  Synergistic effect (M.V./T.V.): 1.7
  TEER reduction suppression ratio (%) +gallic acid (actual measurement value) (M.V.): 90%

## COc1cc(-c2[o+]c3cc(O)cc(O)c3cc2O)cc(O)c1O [Petunidin chloride, petunidin chloride]
Each 10 μM
  Synergistic effect (M.V./T/V/): 1.9
  TEER reduction suppression ratio (%) +gallic acid (actual measurement value) (M.V.): 70%

## Oc1cc(O)cc(/C=C/c2ccc(O)c(O)c2)c1 [Piceatannol, piceatannol]
Each 10 μM
  Synergistic effect (M.V./T/V/): 1.1
  TEER reduction suppression ratio (%) +gallic acid (actual measurement value) (M.V.): 53%

## O=C(O)c1cc(O)c(O)c(O)c1Oc1cc2c(c(O)c1O)-c1c(cc(O)c(O)c1O)C(=O)O[C@@H]1C(COC2=O)O[C@@H](O)C2OC(=O)c3cc(O)c(O)c(O)c3-c3c(cc(O)c(O)c3O)C(=O)OC21 (some centres unmarked) [Praecoxin A, praecoxin A]
Each 1 μM
  Synergistic effect (M.V./T.V.): 1.4
  TEER reduction suppression ratio (%) +gallic acid (actual measurement value) (M.V.): 104%
